Assay results: ChEMBL document CHEMBL5442219

Legend:
Settings in all cases: Compound concentration 10 µM
[1] = biological target: 5-hydroxytryptamine receptor 1E (Homo sapiens) (UniProt P28566)
[2] = biological target: Beta-2 adrenergic receptor (Homo sapiens) (UniProt P07550)
[3] = biological target: T1, 5-hydroxytryptamine receptor 3A (Homo sapiens) (UniProt P46098)
T1 sequence (whole entry): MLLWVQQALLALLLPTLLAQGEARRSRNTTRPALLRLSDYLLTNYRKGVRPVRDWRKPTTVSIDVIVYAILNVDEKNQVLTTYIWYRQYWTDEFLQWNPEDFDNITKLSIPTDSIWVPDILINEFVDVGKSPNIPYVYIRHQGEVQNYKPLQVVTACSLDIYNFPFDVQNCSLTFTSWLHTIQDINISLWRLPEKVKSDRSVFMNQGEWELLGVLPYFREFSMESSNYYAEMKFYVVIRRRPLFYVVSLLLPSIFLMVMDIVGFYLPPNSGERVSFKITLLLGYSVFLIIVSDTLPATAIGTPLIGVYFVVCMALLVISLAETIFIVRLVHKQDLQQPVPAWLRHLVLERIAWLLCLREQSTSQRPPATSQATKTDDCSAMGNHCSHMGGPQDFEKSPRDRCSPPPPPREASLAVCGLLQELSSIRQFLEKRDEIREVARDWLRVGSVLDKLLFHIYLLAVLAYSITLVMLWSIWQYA

[4] = biological target: Histamine H2 receptor (Homo sapiens) (UniProt P25021)
[5] = biological target: Histamine H4 receptor (Homo sapiens) (UniProt Q9H3N8)
[6] = biological target: Beta-3 adrenergic receptor (Homo sapiens) (UniProt P13945)
[7] = biological target: 5-hydroxytryptamine receptor 2A (Homo sapiens) (UniProt P28223)
[8] = biological target: Sodium-dependent dopamine transporter (Homo sapiens) (UniProt Q01959)
[9] = biological target: D(3) dopamine receptor (Homo sapiens) (UniProt P35462)
[10] = biological target: Kappa-type opioid receptor (Homo sapiens) (UniProt P41145)
[11] = biological target: 5-hydroxytryptamine receptor 1B (Homo sapiens) (UniProt P28222)
[12] = biological target: T2, Alpha-2A adrenergic receptor (Homo sapiens) (UniProt P08913)
T2 sequence (whole entry): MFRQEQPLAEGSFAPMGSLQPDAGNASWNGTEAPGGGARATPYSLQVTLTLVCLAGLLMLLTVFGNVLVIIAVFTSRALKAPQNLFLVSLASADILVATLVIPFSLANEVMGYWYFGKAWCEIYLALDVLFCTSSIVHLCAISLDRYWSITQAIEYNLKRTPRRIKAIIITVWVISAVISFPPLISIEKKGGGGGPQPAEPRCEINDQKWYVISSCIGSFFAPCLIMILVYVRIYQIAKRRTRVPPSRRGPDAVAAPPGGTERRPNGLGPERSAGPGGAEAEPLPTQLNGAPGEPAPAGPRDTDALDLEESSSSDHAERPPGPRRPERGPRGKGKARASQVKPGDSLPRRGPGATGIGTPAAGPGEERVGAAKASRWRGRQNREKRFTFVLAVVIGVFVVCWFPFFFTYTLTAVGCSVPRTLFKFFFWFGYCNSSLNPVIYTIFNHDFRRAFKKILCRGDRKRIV

[13] = biological target: Translocator protein (Homo sapiens) (UniProt P30536)
[14] = biological target: Histamine H1 receptor (Homo sapiens) (UniProt P35367)
[15] = biological target: T3, 5-hydroxytryptamine receptor 2C (Homo sapiens) (UniProt P28335)
T3 sequence (whole entry): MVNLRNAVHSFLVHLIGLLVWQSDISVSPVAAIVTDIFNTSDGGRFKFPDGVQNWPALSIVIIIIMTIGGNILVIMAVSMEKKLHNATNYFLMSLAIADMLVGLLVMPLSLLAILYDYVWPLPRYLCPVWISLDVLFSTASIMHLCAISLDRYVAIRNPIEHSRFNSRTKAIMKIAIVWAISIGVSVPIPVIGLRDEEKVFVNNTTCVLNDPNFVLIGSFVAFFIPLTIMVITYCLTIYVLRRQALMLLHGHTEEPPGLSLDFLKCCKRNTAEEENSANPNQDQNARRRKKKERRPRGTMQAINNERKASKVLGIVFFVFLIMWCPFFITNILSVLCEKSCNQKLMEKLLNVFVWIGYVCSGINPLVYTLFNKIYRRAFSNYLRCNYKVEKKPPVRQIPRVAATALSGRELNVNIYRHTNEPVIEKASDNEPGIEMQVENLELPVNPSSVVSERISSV

[16] = biological target: 5-hydroxytryptamine receptor 7 (Homo sapiens) (UniProt P34969)
[17] = biological target: T4, Alpha-2C adrenergic receptor (Homo sapiens) (UniProt P18825)
T4 sequence (whole entry): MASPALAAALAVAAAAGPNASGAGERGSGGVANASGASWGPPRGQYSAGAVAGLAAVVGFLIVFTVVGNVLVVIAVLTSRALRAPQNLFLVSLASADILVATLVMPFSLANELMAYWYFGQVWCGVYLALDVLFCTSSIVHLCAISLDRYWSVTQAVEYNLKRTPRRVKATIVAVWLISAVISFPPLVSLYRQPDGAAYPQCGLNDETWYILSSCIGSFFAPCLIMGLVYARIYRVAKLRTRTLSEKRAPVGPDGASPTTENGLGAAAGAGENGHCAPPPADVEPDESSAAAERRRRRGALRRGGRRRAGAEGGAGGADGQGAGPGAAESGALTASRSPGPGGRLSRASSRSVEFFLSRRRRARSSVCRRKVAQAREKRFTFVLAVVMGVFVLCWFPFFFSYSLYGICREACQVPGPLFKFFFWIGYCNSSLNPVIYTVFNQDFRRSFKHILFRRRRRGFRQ

[18] = biological target: 5-hydroxytryptamine receptor 5A (Homo sapiens) (UniProt P47898)
[19] = biological target: Sodium-dependent noradrenaline transporter (Homo sapiens) (UniProt P23975)
[20] = biological target: 5-hydroxytryptamine receptor 1D (Homo sapiens) (UniProt P28221)
5-hydroxytryptamine receptor 1D (Homo sapiens), sequence (P28221 whole entry): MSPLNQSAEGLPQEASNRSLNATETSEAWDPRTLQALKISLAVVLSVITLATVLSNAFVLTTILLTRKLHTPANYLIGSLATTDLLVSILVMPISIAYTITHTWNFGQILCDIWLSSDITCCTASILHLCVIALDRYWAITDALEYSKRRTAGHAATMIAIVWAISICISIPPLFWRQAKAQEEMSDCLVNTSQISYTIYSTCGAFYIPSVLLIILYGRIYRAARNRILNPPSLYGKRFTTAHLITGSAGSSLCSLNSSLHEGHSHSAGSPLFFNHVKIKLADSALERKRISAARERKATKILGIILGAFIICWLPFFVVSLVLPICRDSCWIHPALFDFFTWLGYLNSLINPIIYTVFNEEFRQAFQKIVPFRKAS

Sodium-dependent dopamine transporter (Homo sapiens), sequence (Q01959 whole entry): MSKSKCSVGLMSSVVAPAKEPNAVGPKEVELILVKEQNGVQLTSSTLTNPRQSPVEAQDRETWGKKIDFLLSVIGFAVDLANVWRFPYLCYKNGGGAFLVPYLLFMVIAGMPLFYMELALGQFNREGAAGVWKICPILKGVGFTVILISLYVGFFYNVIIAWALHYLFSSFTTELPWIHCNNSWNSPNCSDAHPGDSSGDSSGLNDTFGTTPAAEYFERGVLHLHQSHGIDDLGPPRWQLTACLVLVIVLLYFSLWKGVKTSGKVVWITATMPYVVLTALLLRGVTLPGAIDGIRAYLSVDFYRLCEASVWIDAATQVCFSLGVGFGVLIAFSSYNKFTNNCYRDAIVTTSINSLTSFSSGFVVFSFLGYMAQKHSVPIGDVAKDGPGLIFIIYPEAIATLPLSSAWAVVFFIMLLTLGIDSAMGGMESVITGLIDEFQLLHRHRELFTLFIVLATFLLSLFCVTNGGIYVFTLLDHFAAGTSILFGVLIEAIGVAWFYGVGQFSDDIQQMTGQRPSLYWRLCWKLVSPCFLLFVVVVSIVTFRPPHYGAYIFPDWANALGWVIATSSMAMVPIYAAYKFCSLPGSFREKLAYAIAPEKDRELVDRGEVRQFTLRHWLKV
5-hydroxytryptamine receptor 1E (Homo sapiens), sequence (P28566 whole entry): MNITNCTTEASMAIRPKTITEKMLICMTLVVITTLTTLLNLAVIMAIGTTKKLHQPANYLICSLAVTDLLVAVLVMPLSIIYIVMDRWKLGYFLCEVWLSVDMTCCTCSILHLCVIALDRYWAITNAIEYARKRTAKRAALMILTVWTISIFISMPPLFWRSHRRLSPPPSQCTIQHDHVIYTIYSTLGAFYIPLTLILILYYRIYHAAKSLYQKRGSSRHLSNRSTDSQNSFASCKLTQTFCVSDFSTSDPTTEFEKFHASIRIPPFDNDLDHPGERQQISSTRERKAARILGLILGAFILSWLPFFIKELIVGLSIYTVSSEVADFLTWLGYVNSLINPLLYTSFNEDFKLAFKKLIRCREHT
5-hydroxytryptamine receptor 2A (Homo sapiens), sequence (P28223 whole entry): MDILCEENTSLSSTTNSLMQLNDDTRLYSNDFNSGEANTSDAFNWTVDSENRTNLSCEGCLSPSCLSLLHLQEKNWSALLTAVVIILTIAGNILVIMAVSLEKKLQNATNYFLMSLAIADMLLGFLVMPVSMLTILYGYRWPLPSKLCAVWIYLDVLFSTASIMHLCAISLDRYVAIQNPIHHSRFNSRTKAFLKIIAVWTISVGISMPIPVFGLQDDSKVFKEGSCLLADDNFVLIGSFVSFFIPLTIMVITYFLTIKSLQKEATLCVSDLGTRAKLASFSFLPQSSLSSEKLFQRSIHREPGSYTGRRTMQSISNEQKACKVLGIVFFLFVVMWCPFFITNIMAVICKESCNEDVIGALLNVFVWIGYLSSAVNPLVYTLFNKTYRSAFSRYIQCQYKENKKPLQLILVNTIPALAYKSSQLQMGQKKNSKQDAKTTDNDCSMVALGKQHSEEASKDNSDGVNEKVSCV
5-hydroxytryptamine receptor 1B (Homo sapiens), sequence (P28222 whole entry): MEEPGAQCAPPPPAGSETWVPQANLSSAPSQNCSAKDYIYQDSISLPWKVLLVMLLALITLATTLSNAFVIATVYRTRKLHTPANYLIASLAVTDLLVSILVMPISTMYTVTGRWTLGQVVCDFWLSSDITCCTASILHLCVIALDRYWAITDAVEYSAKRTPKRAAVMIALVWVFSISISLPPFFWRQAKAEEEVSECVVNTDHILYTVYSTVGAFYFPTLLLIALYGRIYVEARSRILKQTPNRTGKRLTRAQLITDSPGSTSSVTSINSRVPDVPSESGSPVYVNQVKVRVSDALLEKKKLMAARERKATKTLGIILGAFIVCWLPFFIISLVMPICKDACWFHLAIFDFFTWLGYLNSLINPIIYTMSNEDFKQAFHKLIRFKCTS
Beta-3 adrenergic receptor (Homo sapiens), sequence (P13945 whole entry, looked up): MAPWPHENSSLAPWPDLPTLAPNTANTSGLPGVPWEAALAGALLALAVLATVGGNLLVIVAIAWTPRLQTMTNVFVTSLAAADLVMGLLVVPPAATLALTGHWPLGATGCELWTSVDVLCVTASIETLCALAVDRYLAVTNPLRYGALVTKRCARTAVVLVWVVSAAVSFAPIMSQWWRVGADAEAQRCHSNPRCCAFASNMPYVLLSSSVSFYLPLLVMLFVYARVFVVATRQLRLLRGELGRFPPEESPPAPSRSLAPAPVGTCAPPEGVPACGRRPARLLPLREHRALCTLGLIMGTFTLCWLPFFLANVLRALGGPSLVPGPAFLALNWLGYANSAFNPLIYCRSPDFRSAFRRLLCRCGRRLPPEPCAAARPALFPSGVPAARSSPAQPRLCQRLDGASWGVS
Beta-2 adrenergic receptor (Homo sapiens), sequence (P07550 whole entry, looked up): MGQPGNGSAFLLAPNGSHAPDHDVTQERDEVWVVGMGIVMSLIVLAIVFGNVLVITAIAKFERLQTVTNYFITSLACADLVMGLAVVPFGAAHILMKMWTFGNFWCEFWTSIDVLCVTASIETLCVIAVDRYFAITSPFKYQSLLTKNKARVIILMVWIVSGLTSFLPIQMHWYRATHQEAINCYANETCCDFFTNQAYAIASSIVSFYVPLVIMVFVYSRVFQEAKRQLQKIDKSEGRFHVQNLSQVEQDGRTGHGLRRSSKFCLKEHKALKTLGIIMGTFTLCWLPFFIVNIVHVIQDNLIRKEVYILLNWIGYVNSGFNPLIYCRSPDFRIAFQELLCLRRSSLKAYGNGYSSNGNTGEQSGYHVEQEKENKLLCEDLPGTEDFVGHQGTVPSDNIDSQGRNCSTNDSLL
Translocator protein (Homo sapiens), sequence (P30536 whole entry): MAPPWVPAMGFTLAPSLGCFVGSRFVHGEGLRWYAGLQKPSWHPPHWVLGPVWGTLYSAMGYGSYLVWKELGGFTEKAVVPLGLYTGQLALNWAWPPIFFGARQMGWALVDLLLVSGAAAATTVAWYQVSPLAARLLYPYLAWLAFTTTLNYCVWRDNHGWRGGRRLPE
Histamine H2 receptor (Homo sapiens), sequence (P25021 whole entry): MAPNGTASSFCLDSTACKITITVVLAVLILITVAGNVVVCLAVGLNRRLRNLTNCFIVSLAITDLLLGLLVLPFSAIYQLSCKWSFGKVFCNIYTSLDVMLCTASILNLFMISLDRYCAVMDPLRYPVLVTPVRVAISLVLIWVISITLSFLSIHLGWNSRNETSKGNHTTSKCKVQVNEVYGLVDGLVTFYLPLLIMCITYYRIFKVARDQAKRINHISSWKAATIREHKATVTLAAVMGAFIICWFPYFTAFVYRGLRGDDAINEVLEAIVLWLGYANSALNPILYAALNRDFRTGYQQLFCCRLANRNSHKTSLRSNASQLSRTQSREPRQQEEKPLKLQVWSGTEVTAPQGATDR
5-hydroxytryptamine receptor 5A (Homo sapiens), sequence (P47898 whole entry): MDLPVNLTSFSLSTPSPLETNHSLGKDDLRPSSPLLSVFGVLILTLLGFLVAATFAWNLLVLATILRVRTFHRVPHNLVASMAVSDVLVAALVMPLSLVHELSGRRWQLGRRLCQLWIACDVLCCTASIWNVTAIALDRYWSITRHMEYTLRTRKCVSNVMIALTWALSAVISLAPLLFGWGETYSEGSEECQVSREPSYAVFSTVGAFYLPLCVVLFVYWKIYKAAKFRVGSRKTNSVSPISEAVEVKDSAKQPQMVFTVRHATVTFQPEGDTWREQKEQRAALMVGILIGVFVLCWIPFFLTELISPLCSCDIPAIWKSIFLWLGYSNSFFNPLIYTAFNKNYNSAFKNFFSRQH
Histamine H1 receptor (Homo sapiens), sequence (P35367 whole entry): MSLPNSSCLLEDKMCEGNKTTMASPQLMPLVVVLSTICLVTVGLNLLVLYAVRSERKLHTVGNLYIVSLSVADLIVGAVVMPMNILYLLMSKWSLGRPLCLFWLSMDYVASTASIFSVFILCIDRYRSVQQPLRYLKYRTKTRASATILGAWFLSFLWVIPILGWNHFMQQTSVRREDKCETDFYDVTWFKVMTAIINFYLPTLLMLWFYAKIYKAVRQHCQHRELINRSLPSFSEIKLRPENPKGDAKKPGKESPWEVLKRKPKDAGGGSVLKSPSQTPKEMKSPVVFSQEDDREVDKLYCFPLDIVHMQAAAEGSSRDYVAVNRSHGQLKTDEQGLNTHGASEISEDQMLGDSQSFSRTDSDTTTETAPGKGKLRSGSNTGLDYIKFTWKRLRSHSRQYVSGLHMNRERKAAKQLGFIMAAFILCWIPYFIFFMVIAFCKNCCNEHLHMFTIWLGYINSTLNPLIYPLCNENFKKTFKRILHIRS
D(3) dopamine receptor (Homo sapiens), sequence (P35462 whole entry): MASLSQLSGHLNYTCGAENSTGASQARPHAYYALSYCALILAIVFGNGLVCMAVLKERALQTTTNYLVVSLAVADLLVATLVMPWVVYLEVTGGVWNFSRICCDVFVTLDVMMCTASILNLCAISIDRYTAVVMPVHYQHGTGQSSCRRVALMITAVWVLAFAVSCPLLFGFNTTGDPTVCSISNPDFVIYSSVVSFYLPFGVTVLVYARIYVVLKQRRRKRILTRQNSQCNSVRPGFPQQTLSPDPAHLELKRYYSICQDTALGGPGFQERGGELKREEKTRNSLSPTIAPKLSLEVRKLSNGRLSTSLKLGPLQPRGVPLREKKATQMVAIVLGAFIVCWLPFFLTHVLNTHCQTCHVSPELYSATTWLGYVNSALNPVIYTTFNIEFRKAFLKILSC

SMILES	inhibition [1] [%]	inhibition [2] [%]	inhibition [3] [%]	inhibition [4] [%]	inhibition [5] [%]	inhibition [6] [%]	inhibition [7] [%]	inhibition [8] [%]	inhibition [9] [%]	inhibition [10] [%]	inhibition [11] [%]	inhibition [12] [%]	inhibition [13] [%]	inhibition [14] [%]	inhibition [15] [%]	inhibition [16] [%]	inhibition [17] [%]	inhibition [18] [%]	inhibition [19] [%]	inhibition [20] [%]
CC(C)NC(=O)c1ccc(C#Cc2ccncc2)cn1	-1.26	-8.85	-5.94	25.7	-7.18	29.8	4.54	24.2	26.8	-1.6										
O=C1O[C@]2(CC[C@H](C(=O)Nc3ccn(-c4ccccc4F)n3)CC2)c2cnccc21	5.31			2.76		3.84	22.2		73.2	-6.46	-3.32	-9.69	1.2	7.78	18.3					
COc1cccc(-c2c(C)n(Cc3c(F)cccc3C(F)(F)F)c(=O)n(C[C@H](NCCCC(=O)O)c3ccccc3)c2=O)c1F	11.7					44.5	-2.02		21.6	52.1	15.5		15.8	9.07	1.76	34.2	-3.99	35.8		
CC1=C2C[C@H]3[C@@H](CC=C4C[C@@H](O)CC[C@@]43C)[C@@H]2CC[C@]12O[C@@H]1C[C@H](C)CN[C@H]1[C@H]2C	6.19	5.22		20.5	-2.19	38.6	4.16		19.6	1.76		-1.14	13.5	40.4						
FC(F)(F)c1c(N2CCC(c3ccccc3)CC2)ccn2c(CC3CC3)nnc12	21.9	-5.09		12.3	-1.74	4.3	44.4	54.2	14.2	10.5	-8.94		36.9	33			1.28		31.6	
N#Cc1c(O)nc(SCc2cccc(F)c2F)nc1C1CC1	-5.94	5.94		6.35	4.02		-3.85	45.1	2.3	3.53	-9.63		40.4		-5.1		5.91	8.42	-1.64	38.9
C[C@]1(C(=O)N(CCCC(=O)O)Cc2cccc(Cl)c2)CCN1C(=O)c1csc2ccccc12	-8.85		-7.18	19.3	12.9	-0.98	5.34	13	29	-5.78		10.9	5.72	15.4				-1.31		
CCCNS(=O)(=O)Nc1ncnc(OCCOc2ncc(Br)cn2)c1-c1ccc(Br)cc1	42.3				8.98	42.6	42.8	31.1	54.8	1.8	-0.31		51.2	11.5	4.95		-8.41		53.5	9.11
Cc1nc(-c2ccc(C(F)(F)F)cc2)sc1COc1ccc([C@H](CC(=O)O)c2ccon2)cc1	39.7	7.87		15.9	-1.65		48.3	51.1	42.1	6.61			11.6		-6.07	4.07	2.28	26.8	14.3	8.11
CO[C@@H]1COCC[C@@H]1N[C@@H]1CC[C@@](C(=O)N2CCc3ncc(C(F)(F)F)cc3C2)(C(C)C)C1	9.5	-6.91		14.9	2.39	47.5	4.71	14.2	33.7	25.9	-6.23		11.4	25.1			3.2			
CN(C)S(=O)(=O)c1ccc(NC(=S)N2CCC(C(O)(c3ccccc3)c3ccccc3)CC2)cc1	7.01	71.8	-8.86	18.6	-3.58	57.7	11	33.1	21.5	12.3		-9.2	75.4	6.41	3.54		21.8		15.8	
CCOC(=O)c1cc(C#N)c(N2CCC(C(=O)NS(=O)(=O)Cc3ccccc3)CC2)nc1C	-8.79	-1.62	3.98	17.2	6.28	21.2	5.11	32.9	50.8	3.74				-6.11	6.09		-0.84	-2.81		
O=C(O)CC1CCC2(CC1)CCN(c1cc(OC(F)(F)F)ccc1Cl)CC2	16.8	0.58		-4.3	9.28	17.5	26.1	7.81	65.5	10.9	-0.21		7.83	31.1	13.1		0.13		13.3	
